Patent US8158622B2, “Pyrrolopyridine-2-carboxylic acid amide inhibitors of glycogen phosphorylase” (Prosidion Limited, priority 2003, dated 2012)

Target: T1, Rabbit muscle glycogen phosphorylase a (Oryctolagus cuniculus, UniProt P00489)
T1 construct: purchased Sigma P1261
T1 sequence (P00489 2-843 limits assumed): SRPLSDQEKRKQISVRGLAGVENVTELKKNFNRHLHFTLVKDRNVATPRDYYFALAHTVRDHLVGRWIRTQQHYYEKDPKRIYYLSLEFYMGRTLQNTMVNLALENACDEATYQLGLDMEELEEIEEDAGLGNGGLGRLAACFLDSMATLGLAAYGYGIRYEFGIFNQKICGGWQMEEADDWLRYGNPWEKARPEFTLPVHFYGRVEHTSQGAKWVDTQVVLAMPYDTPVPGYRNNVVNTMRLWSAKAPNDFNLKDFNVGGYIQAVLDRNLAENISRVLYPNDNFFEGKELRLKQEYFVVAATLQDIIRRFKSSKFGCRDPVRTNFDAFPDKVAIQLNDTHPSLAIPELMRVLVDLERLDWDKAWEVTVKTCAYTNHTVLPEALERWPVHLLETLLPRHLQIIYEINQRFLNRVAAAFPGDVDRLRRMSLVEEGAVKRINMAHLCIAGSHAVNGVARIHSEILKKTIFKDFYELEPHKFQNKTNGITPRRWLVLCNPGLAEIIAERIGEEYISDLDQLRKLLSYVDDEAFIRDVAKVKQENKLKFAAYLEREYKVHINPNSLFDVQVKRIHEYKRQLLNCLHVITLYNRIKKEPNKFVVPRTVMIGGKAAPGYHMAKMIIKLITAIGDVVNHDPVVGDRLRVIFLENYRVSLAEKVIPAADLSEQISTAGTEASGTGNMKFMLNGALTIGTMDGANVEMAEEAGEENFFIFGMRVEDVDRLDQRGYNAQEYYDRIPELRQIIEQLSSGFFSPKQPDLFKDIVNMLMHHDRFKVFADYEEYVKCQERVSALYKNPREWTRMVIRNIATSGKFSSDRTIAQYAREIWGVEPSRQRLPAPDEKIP
Test: Glycogen phosphorylase assay in vitro (reverse direction, malachite green phosphate detection)
Assay type: biochemical
Conditions: 50 mM Hepes pH 7.2, 7.5 mM glucose, 0.5 mM glucose-1-phosphate, 1 mg/mL glycogen, 30° C. for 30 min
Text: α-D-Glucose-1-phosphate (disodium salt), Glycogen, D-Glucose, Malachite Green Hydrochloride, Ammonium Molybdate tetrahydrate, BSA, HEPES and rabbit muscle phosphorylase α (P1261) were purchased from Sigma. All other reagents were analytical grade.
Glycogen Phosphorylase Assay In Vitro:
An assay for glycogen phosphorylase activity in the reverse direction was developed based on the method described by Engers et al., Can. J. Biochem., 1970, 48, 746-754]. Rabbit muscle glycogen phosphorylase a (Sigma) was reconstituted at a stock concentration of 100 μg/mL in 25 mM Tris/HCl. […] in a 96-well plate in a final volume of 100 μL containing 50 mM Hepes pH 7.2, 7.5 mM glucose, 0.5 mM glucose-1-phosphate and 1 mg/mL glycogen. After incubation at 30° C. for 30 min, the inorganic phosphate released from glucose-1-phosphate was measured by the addition of 150 μL of malachite green/molybdate solution prepared as follows: 5 mL of 4.2% ammonium molybdate in 4N HCl, 15 mL of 0.045% malachite green, 50 μL of Tween 20. Following a 30 min incubation at rt, the absorbance was measured at 620 nm. For IC50 determination, 10 μL of a serial dilution of compound (100 μM to 0.004 μM) in DMSO was added to each reaction in duplicate with the equivalent concentration of DMSO added to the control uninhibited reaction. Dose response curves were then obtained by plotting % inhibition versus log10 compound concentration. IC50 is defined as the concentration of compound achieving 50% inhibition under the assay conditions described.

SMILES	IC50 [µM]
O=C(NCCNc1ccccc1)c1cc2ccncc2[nH]1 [Example 21, 1H-Pyrrolo[2,3-c]pyridine-2-carboxylic acid (2-phenylaminoethyl)amide]	≥ 100
COc1ccc2[nH]c(C(=O)N[C@@H](Cc3ccccc3)C(=O)N(C)C)cc2n1 [Example 23, 5-Methoxy-1H-pyrrolo[3,2-b]pyridine-2-carboxylic acid (1-dimethylcarbamoyl-2-(S)-phenylethyl)amide]	≥ 100
O=C(NCCN1CCN(Cc2ccccc2)CC1)c1cc2cc(Cl)ncc2[nH]1 [Example 28, 5-Chloro-1H-pyrrolo[2,3-c]pyridine-2-carboxylic acid [2-(4-benzylpiperazin-1-yl)ethyl]amide]	≥ 100
O=C(NCCNCc1ccccc1)c1cc2cc(Cl)ncc2[nH]1 [Example 29, 5-Chloro-1H-pyrrolo[2,3-c]pyridine-2-carboxylic acid (2-benzylaminoethyl)amide]	≥ 100

Other lines, results leading:

IC50 [µM]	SMILES
≥ 100	CN(C)C(=O)[C@H](Cc1ccccc1)NC(=O)c1cc2ncccc2[nH]1 [Example 24, 1H-Pyrrolo[3,2-b]pyridine-2-carboxylic acid (1-dimethylcarbamoyl-2-(S)-phenylethyl)amide]
≥ 100	O=C(NCCOc1ccccc1)c1cc2ncccc2[nH]1 [Example 25, 1H-Pyrrolo[3,2-b]pyridine-2-carboxylic acid (2-phenoxyethyl)amide]
≥ 100	O=C(NCCNc1ccccc1)c1cc2ncccc2[nH]1 [Example 26, 1H-Pyrrolo[3,2-b]pyridine-2-carboxylic acid (2-phenylaminoethyl)amide]
